# From patent US6258790A, “Antisense modulation of integrin α4 expression” (Isis Pharmaceuticals, Inc., priority 1999, dated 2001)
# Values joined by “and” are separate entries in the source; they are usually repeats but may differ in a detail not shown here. Identical values can stand only once.
# Key:
# [1] = tested on: murine integrin α4; experiment: Antisense inhibition of murine integrin α4 protein expression in IC-21 macrophage cells (flow cytometry, CD49d-PE); format: cell-based, mouse; conditions: for % Control (integrin α4 protein) / % Inhib (integrin α4 protein): Table 11
# Description: Murine IC-21 macrophage cells (American Type Culture Collection, Manassas, Va.) were used for further study. Additional oligonucleotides were designed to target murine integrin α4. These are shown in Table 10; all 2' MOE nucleotides are shown in bold and remaining positions are 2' deoxy. All 2'-MOE cytosines in these compounds are 5' methylcytosines. IC-21 cells were seeded at 5×10^4 cell/well plates two days before assay. […] Wells were triplicates.
# Cells (triplicates) were seeded at 2.5×10^4 cells/well in 24-well plates the day before treatment. Oligonucleotide concentrations were 0.2, 1, 5, 25 and 50 nM in 3 ug/ml LIPOFECTIN. Cells were harvested with 2 mM EDTA for 4 minutes, then 1 ml of 2% BSA, 0.2% azide was added per contents of each well.
# IC-21 cells were treated with 0.3, 1, 3, 10 and 30 nM oligonucleotide with 3 ug/ml LIPOFECTIN for 4 hours. Cells were incubated for 24 hours, harvested with trypsin, stained with 2 ug/ml CD49d-PE and rat IgG2B as in previous examples.
# These compounds were tested for ability to inhibit integrin α4 protein expression.
# [2] = tested on: human integrin α4; experiment: Inhibition of human integrin α4 protein levels by antisense oligonucleotides (LIPOFECTIN, flow cytometry with CD49d-FITC) in A375 melanoma cells; format: cell-based; parameters: % Inhib.: tested at 200 nM; conditions: for % Control (integrin α4 protein) / % Inhib (integrin α4 protein): Table 1, 200 nM oligonucleotide, 6 ug/ml LIPOFECTIN; for % CONTROL 48 hr / % INHIB 48 hr: Table 2, A375
# Description: Integrin α4 protein levels can be quantitated in a variety of ways well known in the art, such as immunoprecipitation, Western blot analysis (immunoblotting), ELISA or fluorescence-activated cell sorting (FACS). Antibodies directed to integrin α4 can be identified and obtained from a variety of sources, such as the MSRS catalog of antibodies (Aerie Corporation, Birmingham, Mich.), or can be prepared via conventional antibody generation methods.
# Target sites are indicated by nucleotide numbers, as given in the sequence source reference (GenBank accession no. L12002), to which the oligonucleotide binds. All compounds in Table 1 are 18 nucleotides in length, with a phosphorothioate backbone and a centered 10-base deoxynucleotide gap flanked by 2'-methoxyethoxy (2'MOE) wings. Human A375 melanoma cells (American Type Culture Collection, Manassas, Va.) were plated at 2000 cells/cm^2 two days before oligonucleotide treatment. Cells were treated with oligonucleotides at a dose of 200 nM oligonucleotide and 6 ug/ml LIPOFECTIN for four hours. Cells were incubated overnight and harvested with 2 mM EDTA in PBS. Cells were washed in 2% bovine serum albumin, 0.2% sodium azide in D-PBS at 4° C. Cells were centrifuged at 200×g, and the supernatant was decanted. […] Antibodies were incubated with the cells for 30 minutes at 4° C. in the dark, under gentle agitation. Cells were washed again as above and then resuspended in 0.3 ml of FacsFlow buffer with 0.5% formaldehyde. Cells were analyzed on Becton Dickinson FACScan. Results are expressed as percentage of control expression based on mean fluorescence intensity.
# Cells were harvested with trypsin at 48 and 72 hours after oligonucleotide treatment and stained with 2 ug/ml CD49d-FITC as in the previous example.
# Where backbones are mixed, linkages are shown as "s" for phosphorothioate (P=S or PS) and "o" for phosphodiester (P=O or PO). Where target region is indicated as `M62841,` oligonucleotides are targeted to the promotor region whose sequence is described in GenBank Accession No. M62841. Remaining oligonucleotides are targeted to the sequence described in Genbank Accession No. L12002 and their target sites on the L12002 sequence are indicated.
# Target sites refer to nucleotide numbers on the target sequence (GenBank Accession No. L12002) to which the oligonucleotides hybridize.
# Oligonucleotides were synthesized as "gapmers" consisting of a 9-nucleotide region of deoxynucleotides flanked by three 2'-O-methoxyethyl(2'-MOE) nucleotides on the 5' end and eight 2'-MOE nucleotides on the 3' end. 2'-MOE nucleotides are shown in bold in the table. Oligonucleotides were synthesized with phosphorothioate backbones throughout, and all cytosines are 5-methylcytosines.
# [3] = IC-21 cells, 25 nM, triplicates
# [4] = IC-21 cells, 25 nM, triplicates, 0.025 µM
# [5] = Table 24, A375 cells, lipofectin, as Example 8
substance,measurement,setting,value
"17045 (CCGCAGCCATGCGCTCTTGG; phosphorothioate, 2'-modified, further chemistry not given here) [compound 17045]",% Control,"[1]; Table 16, 0.3 nM",109%
same,% Control,"[1]; Table 16, 1 nM",65%
same,% Inhib.,"[1]; Table 16, 1 nM",35%
same,% Control,"[1]; Table 16, 3 nM",34%
same,% Inhib.,"[1]; Table 16, 3 nM",66%
same,% Control,"[1]; Table 16, 10 nM",12%
same,% Inhib.,"[1]; Table 16, 10 nM",88%
"16428 (antisense GGCCACTGACCAGAGTTGCA; phosphorothioate, 2'-MOE/deoxy gapmer, further chemistry not given here) [compound 16428]",% Control (integrin α4 protein),[1]; [3],67%
same,% Inhib (integrin α4 protein),[1]; [3],33%
"16431 (CCGCAGCCATGCGCTCTTGG; phosphorothioate, 2'-MOE/deoxy, further chemistry not given here) [compound 16431]",IC50,[1]; IC-21 cells,~1 nM
same,% Control (integrin α4 protein),[1]; [3],35%
same,% Inhib (integrin α4 protein),[1]; [4],65% and > 50%
same,% Inhib.,"[1]; Table 12, 0.2 nM, triplicates",18%
same,% of control,"[1]; Table 12, 0.2 nM, triplicates",82%
same,% Inhib.,"[1]; Table 12, 1 nM, triplicates",43%
same,% of control,"[1]; Table 12, 1 nM, triplicates",57%
same,% Inhib.,"[1]; Table 12, 5 nM, triplicates",66%
same,% of control,"[1]; Table 12, 5 nM, triplicates",34%
same,% Inhib.,"[1]; Table 12, 25 nM, triplicates",68%
same,% of control,"[1]; Table 12, 25 nM, triplicates",32%
same,% Inhib.,"[1]; Table 12, 50 nM, triplicates",70%
same,% of control,"[1]; Table 12, 50 nM, triplicates",30%
"17047 (CCGCAGCCATGCGCTCTTGG; phosphorothioate, 2'-modified, further chemistry not given here) [compound 17047]",% Control,"[1]; Table 16, 0.3 nM",132%
same,% Control,"[1]; Table 16, 1 nM",107%
same,% Control,"[1]; Table 16, 3 nM",77%
same,% Inhib.,"[1]; Table 16, 3 nM",23%
same,% Control,"[1]; Table 16, 10 nM",36%
same,% Inhib.,"[1]; Table 16, 10 nM",67%
"16432 (CCGCAGCCATGCGCTCTTGG; phosphorothioate, 2'-MOE/deoxy, further chemistry not given here) [compound 16432]",% Control (integrin α4 protein),[1]; [3],53%
same,% Inhib (integrin α4 protein),[1]; [3],47%
"17048 (GCCGACACCCGTTCGTTCGG; phosphorothioate, 2'-modified, further chemistry not given here) [compound 17048]",% Control,"[1]; Table 16, 0.3 nM",159%
same,% Control,"[1]; Table 16, 1 nM",159%
same,% Control,"[1]; Table 16, 3 nM",150%
same,% Control,"[1]; Table 16, 10 nM",119%
"16430 (antisense GGCCACTGACCAGAGTTGCA; phosphorothioate, 2'-MOE/deoxy gapmer, further chemistry not given here) [compound 16430]",% Control (integrin α4 protein),[1]; [3],50%
same,% Inhib (integrin α4 protein),[1]; [4],50% and > 50%
"16436 (CACCTCGCTTCCGCAGCCAT; phosphorothioate, 2'-MOE/deoxy, further chemistry not given here) [compound 16436]",% Control (integrin α4 protein),[1]; [3],47%
same,% Inhib (integrin α4 protein),[1]; [4],53% and > 50%
"16479 (ACCTCCTCGCTCACGCGCTA; phosphorothioate DNA, further chemistry not given here) [compound 16479]",% Control (integrin α4 protein),[1]; [3],96%
"16435 (CACCTCGCTTCCGCAGCCAT; phosphorothioate, 2'-MOE/deoxy, further chemistry not given here) [compound 16435]",% Control (integrin α4 protein),[1]; [3],30%
same,% Inhib (integrin α4 protein),[1]; [4],70% and > 50%
"16437 (CGCTTCCGCAGCCATGCGCT; phosphorothioate, 2'-MOE/deoxy, further chemistry not given here) [compound 16437]",% Control (integrin α4 protein),[1]; [3],36%
same,% Inhib (integrin α4 protein),[1]; [4],64% and > 50%
"16477 (CGGACCAGTACCAGGGTTAC; phosphorothioate, 2'-deoxy, further chemistry not given here) [compound 16477]",% Control (integrin α4 protein),[1]; [3],96%
"17046 (CCGCAGCCATGCGCTCTTGG; phosphorothioate, 2'-modified, further chemistry not given here) [compound 17046]",% Control,"[1]; Table 16, 0.3 nM",161%
same,% Control,"[1]; Table 16, 1 nM",123%
same,% Control,"[1]; Table 16, 3 nM",125%
same,% Control,"[1]; Table 16, 10 nM",75%
same,% Inhib.,"[1]; Table 16, 10 nM",25%
"16429 (antisense GGCCACTGACCAGAGTTGCA; phosphorothioate, 2'-MOE/deoxy gapmer, further chemistry not given here) [compound 16429]",% Control (integrin α4 protein),[1]; [3],60%
same,% Inhib (integrin α4 protein),[1]; [3],40%
"16434 (CACCTCGCTTCCGCAGCCAT; phosphorothioate, 2'-MOE/deoxy, further chemistry not given here) [compound 16434]",% Control (integrin α4 protein),[1]; [3],33%
same,% Inhib (integrin α4 protein),[1]; [4],67% and > 50%
107251 (antisense CCTTGCATGAAGACATAATA; chemistry not given here) [compound 107251],% Control,[2]; [5],40%
"26643 (TTGCCCTTATATGAGAAACA; phosphorothioate, 2'-MOE, 5-methyl-C, further chemistry not given here) [compound 26643]",% Control,"[2]; Table 4, 10 nM",90%
same,% Inhib.,"[2]; Table 4, 10 nM",10%
same,% Control,"[2]; Table 4, 30 nM",95%
same,% Control,"[2]; Table 4, 100 nM",93%
same,% Control,"[2]; Table 4, 300 nM",66%
same,% Inhib.,"[2]; Table 4, 300 nM (highest dose)",34%
107257 (antisense TGAAATGAACCTCTGCCCAC; chemistry not given here) [compound 107257],% Control,[2]; [5],44%
107238 (antisense TCCTTGCCCTTATATGAGAA; chemistry not given here) [compound 107238],% Control,[2]; [5],49%
24451 (CCACTGATTGTCTCTCTC; chemistry not given here) [compound 24451],inhibition (Example 11),"[2]; Example 11 assay, dose not stated",≥ 40%
same,% Control (integrin α4 protein),[2]; A375 cells,51%
same,% CONTROL 48 hr,[2]; 50 nM,63%
same,% INHIB 48 hr,[2]; 50 nM,37%
same,% CONTROL 48 hr,[2]; 100 nM,44%
same,% INHIB 48 hr,[2]; 100 nM,56%
same,% CONTROL 48 hr,[2]; 200 nM,34%
same,% INHIB 48 hr,[2]; 200 nM,66%
same,% CONTROL 48 hr,[2]; 400 nM,44%
same,% INHIB 48 hr,[2]; 400 nM,56%
same,% Control,"[2]; Table 6, 10 nM",96%
same,% Control,"[2]; Table 6, 30 nM",77%
same,% Inhib.,"[2]; Table 6, 30 nM",23%
same,% Control,"[2]; Table 6, 100 nM",66%
same,% Inhib.,"[2]; Table 6, 100 nM",34%
same,% Control,"[2]; Table 6, 300 nM",35%
same,% Inhib.,"[2]; Table 6, 300 nM (highest dose)",65%
24446 (GCGCGCTCTCAGTGTCCA; chemistry not given here) [compound 24446],% Control (integrin α4 protein),[2]; A375 cells,58%
same,% Inhib (integrin α4 protein),[2]; A375 cells,42%
107250 (antisense GAGTAAAAGAAGTCCAAACA; chemistry not given here) [compound 107250],% Control,[2]; [5],57%
same,% Inhib.,[2]; [5],43%
107241 (antisense GATACTGAGGTCCTCTTCCG; chemistry not given here) [compound 107241],% Control,[2]; [5],36%
24456 (CCCATCACAATTAAATCC; chemistry not given here) [compound 24456],% Control (integrin α4 protein),[2]; A375 cells,76%
same,% Inhib (integrin α4 protein),[2]; A375 cells,24%
107243 (antisense CCAGCCTTCCACATAACATA; chemistry not given here) [compound 107243],% Control,[2]; [5],39%
